By IC50 is commonly meant the concentration at which inhibition is half-maximal.

This is an account of results in ChEMBL document CHEMBL1157390, “Aplysinoplides A-C, cytotoxic sesterterpenes from the marine sponge Aplysinopsis digitata” (J Nat Prod, 2008).

Values after ≈ are worked out from the molar mass of the structure shown. Active and inactive are the calls of the source. The rule behind the calls is not given here.

The target of assay [1] is Phospholipase A2 (Bos taurus) (UniProt P00593). Description: Inhibition of bovine pancreas PLA2 at 100 uM by pH-stat assay.
For a further assay, the system named is P388. Description: Cytotoxicity against mouse P388 cells after 96 hrs by MTT assay. The note with it: P388, 96 h. The format is functional, cell-based. A general note: Formazan colour is commonly taken as a measure of viable cells.

Chain of Phospholipase A2 (Bos taurus) (P00593 whole entry): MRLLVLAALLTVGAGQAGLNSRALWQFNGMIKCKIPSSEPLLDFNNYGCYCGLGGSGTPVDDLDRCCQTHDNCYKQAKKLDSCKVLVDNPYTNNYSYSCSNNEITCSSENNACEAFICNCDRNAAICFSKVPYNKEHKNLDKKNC

For the molecule `CC1=C(CC/C(C)=C/CC/C(=C\CC(O)C2=CC(=O)OC2O)CO)C(C)(C)CCC1` (stereo unspecified) [APLYSINOPLIDE B], the result in assay [1] was inactive. In the assay with P388, this molecule came in with an IC50 of 0.45 µg/mL (≈ 1.08 µM).

With `C/C(=C\CC/C(=C/CC1OC(=O)C=C1CO)CO)CCC1C(C)(C)CCCC1(C)O` (stereo unspecified) [APLYSINOPLIDE C], in the assay on P388, half-maximal inhibition (IC50) was put at 11 µg/mL (≈ 26.2 µM).

Turning to `CC1=C(CC/C(C)=C/CC/C(=C\C=C\C2=CC(=O)OC2O)CO)C(C)(C)CCC1` (stereo unspecified) [APLYSINOPLIDE A], the outcome in assay [1] was inactive. In the assay on P388, this molecule came in with an IC50 of 0.45 µg/mL (≈ 1.12 µM).

Turning to `CC1=C(CC/C(C)=C/CCC2=CC[C@H](C3=CC(=O)O[C@H]3O)O[C@H]2O)C(C)(C)CCC1`, the result in assay [1] was Active.
